Results on 2 molecules are retold here after paper PMC3942692, “Mitochondrial FAD-linked Glycerol-3-phosphate Dehydrogenase: A Target for Cancer Therapeutics” (Pharmaceuticals, 2014).

The target in the assay is T1, GPD2 (mitochondrial glycerol-3-phosphate dehydrogenase) (Homo sapiens, UniProt P43304).
T1 construct: aa 43-727 (mitochondrial transit peptide removed), N-terminal Strep-tag II, expressed in E. coli GJ1158, Strep-Tactin purified; cDNA from PC-3 cells; EC 1.1.5.3
T1 sequence (P43304 43-727): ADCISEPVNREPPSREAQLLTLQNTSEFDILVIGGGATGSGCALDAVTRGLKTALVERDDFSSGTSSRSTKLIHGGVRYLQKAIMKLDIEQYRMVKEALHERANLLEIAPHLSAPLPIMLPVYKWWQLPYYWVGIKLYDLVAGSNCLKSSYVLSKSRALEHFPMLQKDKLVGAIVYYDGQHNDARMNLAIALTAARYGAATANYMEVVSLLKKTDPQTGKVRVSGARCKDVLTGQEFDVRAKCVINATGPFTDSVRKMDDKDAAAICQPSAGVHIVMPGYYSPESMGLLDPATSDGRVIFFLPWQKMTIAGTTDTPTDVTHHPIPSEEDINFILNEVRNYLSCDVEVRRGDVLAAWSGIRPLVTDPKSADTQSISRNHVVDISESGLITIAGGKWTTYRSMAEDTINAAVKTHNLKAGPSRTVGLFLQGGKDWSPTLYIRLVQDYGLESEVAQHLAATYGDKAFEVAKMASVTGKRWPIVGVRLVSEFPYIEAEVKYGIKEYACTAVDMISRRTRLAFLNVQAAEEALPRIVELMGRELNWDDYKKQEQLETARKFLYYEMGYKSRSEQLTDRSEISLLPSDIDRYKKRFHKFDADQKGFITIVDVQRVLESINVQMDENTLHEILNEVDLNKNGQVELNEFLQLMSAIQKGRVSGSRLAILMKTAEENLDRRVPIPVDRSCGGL
As to the kind of experiment: GPD2 oxidoreductase, resazurin reduction fluorescence. It counts as biochemical. As to conditions: 30 mM glycerol-3-phosphate. An excerpt:
GPD2 oxidoreductase, resazurin reduction fluorescence on GPD2 (mitochondrial glycerol-3-phosphate dehydrogenase) | six GPD2 activity inhibitors selected for follow-up analysis are shown
On the technique in general: Resazurin is reduced to fluorescent resorufin, in cell work by metabolically active cells.

What is called EC50 is the concentration at which the effect is half-maximal. Read a high EC50 as a need for much substance.

With `CCOC(=O)c1ccc(-n2sccc2=O)cc1` [KM04416], the EC50 came out at 1.23 ± 0.54 µM. In turn, RH02211 showed an EC50 of 28 ± 13.9 µM.
